Measurements published in patent US20260041744A1, “Methods for Treating Pompe Disease” (Amicus Therapeutics, Inc., priority 2022, published 2026).

Experiments:
[1] = tested on: adult subjects with late-onset Pompe disease (LOPD); assay: Study ATB200-03 (PROPEL): serum creatine kinase (CK); format: in vivo, human; details: combined study population
adult subjects with LOPD [2] = assay: Study ATB200-07 (OLE): Hex4
Procedure: The Phase III double-blind PROPEL study (NCT03729362; ATB200-03) described in Examples 9 and 10 above compared the investigational two-component therapy cipaglucosidase alfa/miglustat (cipa/mig) with alglucosidase alfa/placebo (alglu) in adults with late-onset Pompe disease (LOPD) over 52 weeks. The ongoing open-label extension (OLE) of PROPEL (NCT04138277; ATB200-07) evaluates long-term safety and efficacy of cipa/mig. Outcomes include 6 minute walk distance (6MWD), forced vital capacity (FVC), creatine kinase (CK) and hexose tetrasaccharide (Hex4) levels and safety. Data are reported as change from the PROPEL baseline to OLE week 52 (104 weeks after the PROPEL baseline).

[3] = tested on: adult subjects with Pompe disease; assay: Pooled Studies ATB200-02/03/07 (Pool 2): 6MWD by exposure interval; details: exposure interval ≤15 months
Procedure: The pooled efficacy analyses presented within this section include the outlier (Pool 2). […] Pooled efficacy analyses excluding the outlier subject (Pool 2A) were also performed.
No long-term data for the alglucosidase alfa/placebo group are available, as all subjects switched to cipaglucosidase alfa/miglustat in Study ATB200-07.
Efficacy data from the 3 adult Pompe disease clinical studies were pooled and analyzed to further support the long-term efficacy of cipaglucosidase alfa/miglustat in adult subjects. Data from non-ambulatory subjects (Study ATB200-02 Cohort 2) were not included in the pool as there was little overlap of efficacy endpoints for this group with the various ambulatory groups, such as 6MWD and lower MMT.
The 3 adult Pompe disease clinical studies were pooled as follows: • The cipaglucosidase alfa/miglustat treatment group consists of: • All ambulatory subjects in Study ATB200-02 (Cohorts 1, 3, and 4), • All subjects randomized to the cipaglucosidase alfa/miglustat treatment group in Study ATB200-03, and • All subjects enrolled in Study ATB200-07. • The alglucosidase alfa/placebo treatment group consists of: • All subjects randomized to the ERT treatment group in Study ATB200-03.

adult subjects with LOPD [4] = assay: Study ATB200-07 (OLE): MMT lower extremity
Excerpt: (§1) Analysis populations presented in this summary are 1) the OLE-ES Population (all subjects who satisfied the eligibility requirements (based on the inclusion and exclusion criteria) and entered Study ATB200-07 and 2) the OLE-FAS Population (all subjects who entered the OLE Study ATB200-07 who had both a valid ATB200-07 baseline and at least 1 post-baseline assessment for at least 1 of the 6 main efficacy endpoints [6MWD, sitting % predicted FVC, MMT-lower extremities, PROMIS-Physical Function, PROMIS-Fatigue, and GSGC]).

Gaa KO mice = assay: Muscle biomarkers LAMP1, LC3, dysferlin in Gaa KO mice (staining, western blot); format: in vivo, mouse; details: mouse, in vivo
Procedure: The therapeutic effects of ATB200 and miglustat were evaluated and compared against those of Alglucosidase alfa in Gaa KO mice. For the study, male Gaa KO (3-to 4-month old) and age-matched wild-type (WT) mice were used. Alglucosidase alfa was administered via bolus tail vein intravenous (IV) injection. In the co-administration regimen, miglustat was administered via oral gavage (PO) 30 minutes prior to the IV injection of ATB200. Treatment was given biweekly. Treated mice were sacrificed after 14 days from the last administration and various tissues were collected for further analysis. Table 11 summarizes the study design:
Tissue samples were also analyzed for biomarker changes following the methods discussed in: Khanna R, et al. (2012), “The pharmacological chaperone AT2220 increases recombinant human acid α-glucosidase uptake and glycogen reduction in a mouse model of Pompe disease,” Plos One 7(7): e40776; and Khanna, R et al. (2014), “The Pharmacological Chaperone AT2220 Increases the Specific Activity and Lysosomal Delivery of Mutant Acid a-Glucosidase, and Promotes Glycogen Reduction in a Transgenic Mouse Model of Pompe Disease,” PLOS ONE 9(7): e102092.
Similarly, intense LC3-positive aggregates in the muscle fibers of untreated Gaa KO mice signify the presence of autophagic zones and autophagy build-up. […] A similar observation was made when the expression of LC3 was assessed using western blot. […] In comparison, the effect of alglucosidase alfa on autophagy was modest.
Dysferlin, a protein involved in membrane repair and whose deficiency/mistrafficking is associated with a number of muscular dystrophies, was also assessed.

adult subjects with LOPD [5] = assay: Study ATB200-07 (OLE): GSGC; format: in vivo, human
Excerpt: as §1

adult subjects with LOPD [6] = assay: Study ATB200-07 (OLE): PROMIS-Physical Function; format: in vivo, human
Excerpt: as §1

[7] = tested on: adult subjects with late-onset Pompe disease (LOPD); assay: Study ATB200-03 (PROPEL): PROMIS-Physical Function; format: in vivo, human; details: for CHG to Week 52 in PROMIS-Physical Function total score, LS Mean: MMRM, actual time point of assessments; for PROMIS-Physical Function Short Form 20a total score CHG, LS means (SE): Week 52, ANCOVA
Procedure: The test for the primary endpoint was conducted first at the 1-sided 0.025 significance level, and if significant, the ordered key secondary endpoints were similarly tested at the same significance level. The statistical significance of the key secondary endpoints was interpreted following a hierarchical testing order, each at the 1-sided alpha level of 0.025. […] Primary analyses of efficacy were performed using the mixed-effect model for repeated measures (MMRM) for 6MWD in Intent-to-treat Observed Population (ITT) that includes all available, observed data without any missing data imputation (ITT-OBS) and analysis of covariance (ANCOVA) for all other endpoints in the Intent-to-Treat-Last Observation Carried Forward (ITT-LOCF) Population. A nonparametric randomization based ANCOVA was specified as the first sensitivity analysis for 6MWD and FVC. […] For the purposes of data presentation in this document, 2-sided p-values are reported hereafter, except as otherwise noted.

adult subjects with LOPD [8] = assay: Study ATB200-07 (OLE): sitting % predicted FVC; format: in vivo, human
Excerpt: The study doses and schedule are maintained from Study ATB200-03.
Efficacy data are presented in this summary as change from the baseline of Study ATB200-03 (OLE-ES Population).

[9] = tested on: adult subjects with late-onset Pompe disease (LOPD); assay: Study ATB200-03: global test and responder analyses on 6MWD, FVC, MMT; format: in vivo, human; details: change from baseline to Week 52
Excerpt: To support the interpretation of clinical benefit, a composite subject-level response was defined based on the totality of the treatment outcome data. Subjects were classified by an ordinal response variable consisting of significant improvement, moderate improvement, or minor/no improvement based on treatment outcomes.
Thresholds for clinically relevant changes for 6MWD and FVC in Pompe specifically are not well established, however a large body of data exists from other neuromuscular and chronic respiratory diseases, especially interstitial pulmonary fibrosis (IPF). […] Accordingly, these thresholds were applied to analyses of Study ATB200-03 data.
Additional post hoc patient-level analyses were conducted using these thresholds for 6MWD (±6%) and FVC (±3%) separately and combined.

[10] = Study ATB200-03 baseline, OLE-ES Population excluding Subject 4005-2511
[11] = change from ATB200-03 baseline at Week 52, OLE-ES excluding Subject 4005-2511
[12] = change from ATB200-03 baseline at Week 104, alglucosidase alfa/placebo group switched to cipaglucosidase alfa/miglustat at Week 52, OLE-ES excluding Subject 4005-2511
[13] = Week 52-LOCF, ERT-experienced Population
[14] = Week 52-LOCF, ERT-naïve Subjects excluding Subject 4005-2511
[15] = Week 52-LOCF, ITT excluding Subject 4005-2511
[16] = ERT-naïve, Study ATB200-03/07, excluding the outlier
[17] = Excluding Subject 4005-2511, 2-sided p 0.010
[18] = ITT Population, 2-sided p 0.022

Substance: alglucosidase alfa [reference compound]
- mean change in CK after 52 weeks [1]: +15.6%
- Hex4, mean BSL (adult subjects with LOPD [2]; [10]): 7.0
- Hex4, mean 52-wk CFB (adult subjects with LOPD [2]; [11]): 1.6
- Hex4, mean 104-wk CFB (adult subjects with LOPD [2]; [12]): −2.7
- 6MWD Baseline, Mean ([3]; Pool 2, Efficacy Population including the outlier): 350.14 meters
- 6MWD Baseline, Median ([3]; Pool 2, including the outlier): 358.45 meters
- 6MWD change from baseline, median ([3]; Pool 2, including the outlier): 3.15 meters
- 6MWD change from baseline, mean ([3]; last available post-baseline value − baseline, Pool 2, including the outlier): 16.40 meters
- MMT (lower extremity score), mean BSL (adult subjects with LOPD [4]; [10]): 27.8
- MMT (lower extremity score), mean 52-wk CFB (adult subjects with LOPD [4]; [11]): 0.9
- MMT (lower extremity score), mean 104-wk CFB (adult subjects with LOPD [4]; [12]): 1.1
- LC3 II level / autophagy, western blot (Gaa KO mice): modest
- GSGC, mean BSL (adult subjects with LOPD [5]; [10]): 14.3
- GSGC, mean 52-wk CFB (adult subjects with LOPD [5]; change from ATB200-03 baseline at Week 52, decrease indicates improvement, OLE-ES excluding Subject 4005-2511): 0.9
- GSGC, mean 104-wk CFB (adult subjects with LOPD [5]; [12]): 0.3
- PROMIS-Physical Function, mean BSL (adult subjects with LOPD [6]; [10]): 67.9
- PROMIS-Physical Function, mean 52-wk CFB (adult subjects with LOPD [6]; [11]): 0.3
- PROMIS-Physical Function, mean 104-wk CFB (adult subjects with LOPD [6]; [12]): −0.4
- PROMIS-Physical Function Short Form 20a total score Absolute Value, Median ([7]; Baseline, ITT, ERT-naïve Subjects excluding Subject 4005-2511): 67.00
- PROMIS-Physical Function Short Form 20a total score Absolute Value, Mean ([7]; Baseline, ITT, ERT-naïve Subjects excluding Subject 4005-2511, score 20 to 100, higher = less impact): 72.71
- mean (SD) change in PROMIS-Physical Function total score from baseline to Week 52 ([7]; ERT-experienced Population): 1.0 (11.20)
- mean (SD) change in PROMIS-Physical Function total score from baseline to Week 52 ([7]; ERT-naïve excluding Subject 4005-2511): 5.1 (7.82)
- Change in PROMIS-Physical Function total score baseline to Week 52, LS means (SE) from ANCOVA ([7]; ITT-LOCF, ERT-naïve Subjects excluding Subject 4005-2511): 6.96 (3.539)
- CHG to Week 52 in PROMIS-Physical Function total score, LS Mean ([7]; ITT-OBS excluding Subject 4005-2511 (overall)): −0.3
- CHG to Week 52 in PROMIS-Physical Function total score, LS Mean ([7]; ITT-OBS excluding Subject 4005-2511, ERT-naïve Subjects): 5.8
- CHG to Week 52 in PROMIS-Physical Function total score, LS Mean ([7]; ITT-OBS, ERT-experienced Subjects): −1.6
- PROMIS-Physical Function Short Form 20a total score Absolute Value, Mean (SD) [7, 13]: 65.90 (15.790)
- PROMIS-Physical Function Short Form 20a total score Absolute Value, Median [7, 13]: 66.00
- PROMIS-Physical Function Short Form 20a total score CHG, Mean (SD) [7, 13]: −0.97 (11.196)
- PROMIS-Physical Function Short Form 20a total score CHG, Median [7, 13]: −2.00
- PROMIS-Physical Function Short Form 20a total score Absolute Value, Mean [7, 14]: 77.86
- PROMIS-Physical Function Short Form 20a total score Absolute Value, Median [7, 14]: 80.00
- PROMIS-Physical Function Short Form 20a total score CHG (change from baseline), Mean [7, 14]: 5.14
- PROMIS-Physical Function Short Form 20a total score CHG (change from baseline), Median [7, 14]: 5.00
- PROMIS-Physical Function Short Form 20a total score Absolute Value, Mean (SD) [7, 15]: 68.16 (16.269)
- PROMIS-Physical Function Short Form 20a total score Absolute Value, Median [7, 15]: 69.00
- PROMIS-Physical Function Short Form 20a total score CHG, Mean (SD) [7, 15]: 0.19 (10.819)
- PROMIS-Physical Function Short Form 20a total score CHG, Median [7, 15]: −1.00
- PROMIS-Physical Function Short Form 20a total score CHG, LS means (SE) ([7]; ITT-LOCF excluding Subject 4005-2511): 0.11 (1.406)
- PROMIS-Physical Function Short Form 20a total score CHG, LS means (SE) ([7]; ITT-LOCF, ERT-experienced Population): −1.25 (1.587)
- mean (SD) change in PROMIS-Physical Function total score from baseline to Week 52 ([7]; overall population): 0.2 (10.82)
- % Predicted FVC Baseline Mean (adult subjects with LOPD [8]; [16]): 79.1 % predicted
- % Predicted FVC CFBL M12 (W 52) Mean (adult subjects with LOPD [8]; [16]): −4.0 % predicted
- % Predicted FVC CFBL M24 (W 104) Mean (adult subjects with LOPD [8]; [16]): −3.1 % predicted
- Sitting FVC, mean BSL (adult subjects with LOPD [8]; [10]): 69.5 % predicted
- Sitting FVC, mean 52-wk CFB (adult subjects with LOPD [8]; [11]): −3.6 % predicted
- Sitting FVC, mean 104-wk CFB (adult subjects with LOPD [8]; [12]): −3.6 % predicted
- Wilcoxon rank sum test on sum of ranks for 6MWD and % predicted FVC: Mean Score [9, 17]: 48.5
- Wilcoxon rank sum test on sum of ranks for 6MWD and % predicted FVC: Sum of Scores [9, 17]: 1793.5
- Wilcoxon rank sum test on sum of ranks for 6MWD and FVC: Mean Score [9, 18]: 50.4
- Wilcoxon rank sum test on sum of ranks for 6MWD and FVC: Sum of Scores [9, 18]: 1915.5
